Measurements from patent publication US20060281673A1, “Novel peptide inhibitor of hiv fusion that disrupts the internal trimeric coiled-coil of gp41” (priority 2003, published 2006).
Where “and” joins values, the source holds several entries; their conditions need not be identical. Equal entries are not always repeated. Entries after “also recorded” stand apart in the source; their conditions may differ.

Columns and labels:
[1] = Circular dichroism, secondary structure; assay type: physicochemical; conditions: CD at 25° C., program CDNN
Description: (§1) Circular Dichroism—CD spectra of peptides (at a concentration corresponding to 0.7-0.8 A280) were recorded at 25° C. on a JASCO J-720 spectropolarimeter using a 0.05-cm path length cell.

[2] = molecular target: pre-hairpin intermediate of gp41 (Human immunodeficiency virus type 1 group M subtype B, UniProt P04578); set-up: species or system HIV-1
pre-hairpin intermediate of gp41, sequence (P04578 512-856): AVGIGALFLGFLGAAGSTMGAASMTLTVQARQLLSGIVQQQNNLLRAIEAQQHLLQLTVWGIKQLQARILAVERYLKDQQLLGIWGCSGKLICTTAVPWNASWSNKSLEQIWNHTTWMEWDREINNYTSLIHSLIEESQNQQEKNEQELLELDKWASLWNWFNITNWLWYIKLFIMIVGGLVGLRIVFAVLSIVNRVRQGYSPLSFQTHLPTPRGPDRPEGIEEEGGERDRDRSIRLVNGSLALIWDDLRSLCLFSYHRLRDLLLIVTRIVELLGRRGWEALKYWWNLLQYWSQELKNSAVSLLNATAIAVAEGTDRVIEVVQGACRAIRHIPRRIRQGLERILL

[3] = Sedimentation equilibrium (analytical ultracentrifugation), oligomeric state; assay type: physicochemical; conditions: 50 mM sodium formate pH 3, 20.0° C.
Text: […]. J. Biochem. 157:169-180)).

[4] = molecular target: T1, C34 peptide derived from the C-terminal region of gp41 (residues 628-661) (Human immunodeficiency virus type 1 group M subtype B, UniProt P04578); assay: Interaction with C34 by analytical ultracentrifugation or CD; assay type: binding, HIV-1
T1 construct: the C34 peptide comprises residues 628-661 of the C-region of HIV-1 gp41; purchased Commonwealth Biotechnologies (Richmond, Va.); host or cells: solid-phase synthesis
T1 sequence (P04578 628-661): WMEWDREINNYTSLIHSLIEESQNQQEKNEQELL
Description: as §1
Sedimentation Equilibrium—Sedimentation equilibrium experiments were conducted at 20.0° C. and three different rotor speeds (16,000, 20,000, and 24,000) on a Beckman Optima XL-A analytical ultracentrifuge. Peptide samples were prepared in 50 mM sodium formate buffer (pH=3) and loaded into the ultracentrifuge cells at nominal loading concentrations of ˜0.2 and 0.7-0.8 A280. Data were analyzed in terms of a single ideal solute to obtain the buoyant molecular mass, M(1−νρ), using the Optima XL-A data analysis software (Beckman). […] J. Biochem. 157:169-180)).

[5] = test system: HIV Env-mediated cell fusion; conditions: read-out: fails to inhibit fusion even at concentrations as high as

Substance	helical content [1]	optimized value of β (heterotrimerization with gp41 relative to Kref^trimer) [2]	oligomeric state in solution [3]	interaction with C34 [4]	IC50 [5]
Ac-SGIDQEQNNLTRLIEAQIHELQLTQWKIKQLLARIL-NH2 [N36^Mut(e,g)]	~80%	2.97 and 5.76	monodisperse, helical trimer	does not interact with C34; also recorded: No evidence of interaction	
SGIVQQLNNQLRAEEANQHLEQLSVWGSKQNQARRL; peptide derived from N36 with nine substitutions at positions a and d of the helical wheel (SGIVQQLNNQLRAEEANQHLEQLSVWGSKQNQARRL) [N36^Mut(a,d)]	~20%		monomeric; also recorded: monomer	does not interact with the C34 peptide; also recorded: No evidence of interaction	> 100 µM
